Measurements taken from patent US9777002B2, “Inhibitors of the renal outer medullary potassium channel” (Merck Sharp & Dohme Corp., priority 2012, dated 2017).

Target: T1, hROMK (hKir1.1) (Homo sapiens, UniProt P48048)
T1 construct: expressed in transfected cells
T1 sequence (P48048 1-391): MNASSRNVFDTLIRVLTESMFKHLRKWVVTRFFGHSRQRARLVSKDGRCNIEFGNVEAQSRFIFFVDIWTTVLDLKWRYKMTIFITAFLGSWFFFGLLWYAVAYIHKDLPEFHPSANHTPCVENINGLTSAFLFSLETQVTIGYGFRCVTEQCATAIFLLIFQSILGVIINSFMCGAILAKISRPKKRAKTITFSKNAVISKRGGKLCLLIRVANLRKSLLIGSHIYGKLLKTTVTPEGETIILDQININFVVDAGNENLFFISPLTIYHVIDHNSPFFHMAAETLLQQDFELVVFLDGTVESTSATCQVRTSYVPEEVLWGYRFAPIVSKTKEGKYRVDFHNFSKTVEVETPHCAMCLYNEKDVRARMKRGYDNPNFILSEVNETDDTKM
Experiment: Thallium Flux Assay
Type: cell-based
Details: HEK293 cells stably expressing hROMK (hKir1.1)
Procedure: Cell Culture Conditions—HEK293 cells stably expressing hROMK (hKir1.1) were grown at 37° C. in a 10% CO2 humidified incubator in complete growth media: Dulbecco's Modified Eagle Medium supplemented with non-essential amino acids, Penicillin/Streptomycin/Glutamine, G418 and FBS. At >80% confluency, aspirate the media from the flask and rinse with 10 mL Calcium/Magnesium-free PBS. Add 5 mL of 1× trypsin (prepared in Ca/Mg Free PBS) to T-225 flask and return flask to 37° C./CO2 incubator for 2-3 minutes. To dislodge the cell, gently bang the side of the flask with your hand. Triturate the cells completely and then transfer the cells to 25 mL complete media. Centrifuge at 1,500 rpm for 6 min followed by resuspension in complete growth media and determine cell concentration. For typical re-seeding, 4E6 cells/T-225 flask will attain >80% confluency in 4 days. Under ideal growth conditions and appropriate tissue culture practices, this cell line is stable for 40-45 passages.
FluxOR Kit Components (Invitrogen F10017)
• FluxOR™ Reagent (Component A) • FluxOR™ Assay Buffer (Component B)—10× Concentrate • PowerLoad™ Concentrate (Component C)—100× Concentrate • Probenecid (Component D)—Lyophilized sample is kept at −20° C. Water soluble, 100× after solubilization in 1 mL water. Store at 4° C. • FluxOR™ Chloride-free Buffer (Component E)—5× Concentrate • Potassium sulfate (K2SO4) Concentrate (Component F)—125 mM in water. Store at 4° C. • Thallium sulfate (Tl2SO4) Concentrate (Component G)—50 mM in water. Store at 4° C. • DMSO (dimethyl sulfoxide, Component H)—1 mL (100%) Reagent Preparation: FluxOR Working Solutions • 1000× FluxOR™ Reagent: Reconstitute a vial of component A in 100 μl DMSO; Mix well; Store 10 μl aliquots at −20° C. • 1× FluxOR™ Assay Buffer: Dilute Component B 10-fold with water; Adjust pH to 7.4 with Hepes/NaOH; Filter and store at 4° C. • Probenecid/Assay Buffer: 100 mL of 1× FluxOR™ Assay Buffer; 1 mL of reconstituted component D; Store at 4° C. • Loading Buffer (per microplate): 10 μl 1000× FluxOR™ Reagent; 100 μl component C; 10 mL Probenecid/Assay Buffer • Compound Buffer (per microplate): 20 mL Probenecid/Assay Buffer; 0.3 mM ouabain (10 mM ouabain in water can be stored in amber bottle/aluminum foil at room temperature); Test compound • 1× FluxOR™ Chloride-Free Buffer: Prepare 1× working solution in water. Can be stored at room temperature • Stimulant Buffer (prepared at 5× final concentration in 1× FluxOR™Chloride-Free Buffer): 7.5 mM Thallium sulfate and 0.75 mM Potassium sulfate (to give a final assay concentration of 3 mM Thallium/0.3 mM Potassium). Store at 4° C. when not in use. If kept sterile, this solution is good for months.
Assay Protocol—The ROMK channel functional thallium flux assay is performed in 384 wells, using the FLIPR-Tetra instrument. HEK-hKir1.1 cells are seeded in Poly-D-Lysine microplates and kept in a 37° C.-10% CO2 incubator overnight. On the day of the experiment, the growth media is replaced with the FluxOR™ reagent loading buffer and incubated, protected from light, at ambient temperature (23-25° C.) for 90 min. The loading buffer is replaced with assay buffer± test compound followed by 30 min incubation at ambient temperature, where the Thallium/Potassium stimulant is added to the microplate.
• 1. Seed HEK-hKir1.1 cells (50 μl at 20,000 cells/well) in 384-well PDL coated Microplates • 2. Allow cells to adhere overnight in humidified 37° C./10% CO2 incubator • 3. Completely remove cell growth media from microplate and replace with 25 μl loading buffer • 4. Incubate Microplate at room temperature, protected form light, for 90 min • 5. Remove loading buffer and replace with 25 μl 1× Assay Buffer±test compound. • 6. Incubate microplate at room temperature, protected from light, for 30 min • 7. At FLIPR-Tetra 384: Add stimulant (Thallium/Potassium) solution to microplate and monitor fluorescence. Excitation=400 nm, Emission=460 & 580 nm. Collect data for ˜10 min. […]

| SMILES | IC50 |
| --- | --- |
| Cc1c([C@@H](O)CN2CCC(NC(=O)c3ccc(-c4nccs4)cc3)CC2)ccc2c1COC2=O [Example 75, (R)-N-(1-(2-Hydroxy-2-(4-methyl-1-oxo-1,3-dihydroisobenzofuran-5-yl)ethyl)piperidin-4-yl)-4-(thiazol-2-yl)benzamide] | 390 nM |
| Cc1c([C@@H](O)CN2CCC(NC(=O)c3ncc(C#N)c4ccccc34)CC2)ccc2c1COC2=O [Example 42, (R)-4-Cyano-N-(1-(2-hydroxy-2-(4-methyl-1-oxo-1,3-dihydroisobenzofuran-5-yl)ethyl)piperidin-4-yl)isoquinoline-1-carboxamide] | 100 nM |
| Cc1c(CCN2CCC(NC(=O)c3ccnc(-n4cnnn4)c3)CC2)ccc2c1COC2=O [Example 15, N-(1-(2-(4-Methyl-1-oxo-1,3-dihydroisobenzofuran-5-yl)ethyl)piperidin-4-yl)-2-(1H-tetrazol-1-yl)isonicotinamide] | 450 nM |
| Cc1c([C@@H](O)CN2CCC3(CC2)CCN3C(=O)c2ccc(-n3cnnn3)cn2)ccc2c1COC2=O [Example 55, (R)-5-(2-(1-(5-(1H-Tetrazol-1-yl)picolinoyl)-1,7-diazaspiro[3.5]nonan-7-yl)-1-hydroxyethyl)-4-methylisobenzofuran-1(3H)-one] | 530 nM |
| Cc1cc(C(=O)N[C@H]2CCN(C[C@H](O)c3ccc4c(c3C)COC4=O)C[C@H]2F)ccc1C#N (single isomer, unassigned) [47 A] | 160 nM |
| Cc1c([C@@H](O)CN2CCC(NC(=O)c3ccc(C#N)cc3)CC2)ccc2c1COC2=O [Example 27, (R)-4-Cyano-N-(1-(2-hydroxy-2-(4-methyl-1-oxo-1,3-dihydroisobenzofuran-5-yl)ethyl)piperidin-4-yl)benzamide] | 30 nM |
| Cc1cc(C(=O)NC2CCN(C[C@H](O)c3ccc4c(c3C)COC4=O)CC2F)ncc1C#N (single isomer, unassigned) [48 B] | 100 nM |
| Cc1c([C@@H](O)CN2CCC(NC(=O)c3ccc(-c4ccon4)cc3)CC2)ccc2c1COC2=O [Example 35, (R)-N-(1-(2-Hydroxy-2-(4-methyl-1-oxo-1,3-dihydroisobenzofuran-5-yl)ethyl)piperidin-4-yl)-4-(isoxazol-3-yl)benzamide] | 60 nM |
| Cc1c([C@@H](O)CN2CCC(C)(NC(=O)c3ccc4nonc4c3)CC2)ccc2c1COC2=O [Example 77, (R)-N-(1-(2-Hydroxy-2-(4-methyl-1-oxo-1,3-dihydroisobenzofuran-5-yl)ethyl)-4-methylpiperidin-4-yl)benzo[c][1,2,5]oxadiazole-5-carboxamide] | 530 nM |
| Cc1c([C@@H](O)CN2CCC(CNC(=O)c3ccc4nonc4c3)C2)ccc2c1COC2=O (stereo partly drawn) [Example 89, N-((1-((R)-2-Hydroxy-2-(4-methyl-1-oxo-1,3-dihydroisobenzofuran-5-yl)ethyl)pyrrolidin-3-yl)methyl)benzo[c][1,2,5]oxadiazole-5-carboxamide] | 260 nM |
| Cc1c([C@@H](O)CN2CCC(C)(CNC(=O)c3ccc(-n4cnnn4)nc3)C2)ccc2c1COC2=O (stereo partly drawn) [Example 84, N-((1-((R)-2-Hydroxy-2-(4-methyl-1-oxo-1,3-dihydroisobenzofuran-5-yl)ethyl)-3-methylpyrrolidin-3-yl)methyl)-6-(1H-tetrazol-1-yl)nicotinamide] | 190 nM |
| Cc1c([C@@H](O)CN2CC[C@@H](NC(=O)c3ccc(C#N)cn3)[C@H](F)C2)ccc2c1COC2=O [Example 38, 5-Cyano-N-((trans)-3-fluoro-1-((R)-2-hydroxy-2-(4-methyl-1-oxo-1,3-dihydroisobenzofuran-5-yl)ethyl)piperidin-4-yl)picolinamide] | 1000 nM |
| COc1cc(C(=O)NC2CCN(CC(O)c3ccc4c(c3C)COC4=O)CC2)ccc1C#N (centres unmarked) [Example 7, 4-Cyano-N-(1-(2-hydroxy-2-(4-methyl-1-oxo-1,3-dihydroisobenzofuran-5-yl)ethyl)piperidin-4-yl)-3-methoxybenzamide] | 10 nM |
| COc1cc(F)c(C#N)cc1C(=O)NC1CCN(CCc2ccc3c(c2C)COC3=O)CC1 [Example 17, 5-Cyano-4-fluoro-2-methoxy-N-(1-(2-(4-methyl-1-oxo-1,3-dihydroisobenzofuran-5-yl)ethyl)piperidin-4-yl)benzamide] | 30 nM |
| Cc1c([C@@H](O)CN2CCC(C3(NC(=O)c4ccc(-n5cnnn5)nc4)CCC3)C2)ccc2c1COC2=O (single isomer, unassigned) [90 B] | 280 nM |
| COc1cc(C(=O)NC2CCN(C[C@H](O)c3ccc4c(c3C)COC4=O)CC2)ccc1C#N [Example 57, (R)-4-Cyano-N-(1-(2-hydroxy-2-(4-methyl-1-oxo-1,3-dihydroisobenzofuran-5-yl)ethyl)piperidin-4-yl)-3-methoxybenzamide] | 320 nM |
| CCOc1cc(C#N)ccc1C(=O)NC1CCN(C[C@H](O)c2ccc3c(c2C)COC3=O)CC1 [Example 26, (R)-4-Cyano-2-ethoxy-N-(1-(2-hydroxy-2-(4-methyl-1-oxo-1,3-dihydroisobenzofuran-5-yl)ethyl)piperidin-4-yl)benzamide] | 70 nM |
| Cc1c(CCN2CCC(NC(=O)c3ccc(-n4cccn4)cc3)CC2)ccc2c1COC2=O [Example 31, N-(1-(2-(4-Methyl-1-oxo-1,3-dihydroisobenzofuran-5-yl)ethyl)piperidin-4-yl)-4-(1H-pyrazol-1-yl)benzamide] | 100 nM |
| Cc1c([C@@H](O)CN2CCC(NC(=O)c3ccc(-n4cnnn4)nn3)CC2)ccc2c1COC2=O [Example 65, (R)-N-(1-(2-Hydroxy-2-(4-methyl-1-oxo-1,3-dihydroisobenzofuran-5-yl)ethyl)piperidin-4-yl)-6-(1H-tetrazol-1-yl)pyridazine-3-carboxamide] | 110 nM |
| Cc1c([C@@H](O)CN2CCC(CNC(=O)c3ccc(-n4cnnn4)cn3)C2)ccc2c1COC2=O (stereo partly drawn) [Example 86, N-((1-((R)-2-Hydroxy-2-(4-methyl-1-oxo-1,3-dihydroisobenzofuran-5-yl)ethyl)pyrrolidin-3-yl)methyl)-5-(1H-tetrazol-1-yl)picolinamide] | 980 nM |
| Cc1c([C@@H](O)CN2CC[C@H](NC(=O)c3ccc(-n4cnnn4)cn3)[C@H](F)C2)ccc2c1COC2=O (single isomer, unassigned) [58 A] | 540 nM |
| Cc1c([C@@H](O)CN2CCC(NC(=O)c3cccc(-n4cnnn4)c3)CC2)ccc2c1COC2=O [Example 36, (R)-N-(1-(2-Hydroxy-2-(4-methyl-1-oxo-1,3-dihydroisobenzofuran-5-yl)ethyl)piperidin-4-yl)-3-(1H-tetrazol-1-yl)benzamide] | 450 nM |
| Cc1c([C@@H](O)CN2CC[C@H](NC(=O)c3ccc(-n4cnnn4)cn3)C2)ccc2c1COC2=O [Example 61, N-((S)-1-((R)-2-Hydroxy-2-(4-methyl-1-oxo-1,3-dihydroisobenzofuran-5-yl)ethyl)pyrrolidin-3-yl)-5-(1H-tetrazol-1-yl)picolinamide] | 230 nM |
